Measurements as given in US8247211B2, “Glycopeptide antibiotics” (American Cyanamid Company, priority 2001, dated 2012).
Converted amounts (≈) assume the structure as drawn.

Tests used:
Assay in all cases: In vitro antibacterial evaluation: minimum inhibitory concentration (MIC), broth dilution method
Type in all cases: cell-based
Details in all cases: 18 hours at 35° C.
Enterococcus sp. = test system: Enterococcus sp.
In short: (§1)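 NCCLS M7-A2 broth dilution; Muller-Hinton II […]; 5×10^5 CFU/mL; 64-0.06 μg/mL. MIC = lowest concentration with no growth.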

Escherichia coli = test system: Escherichia coli
In short: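 Broth dilution per NCCLS M7-A2 in Muller-Hinton II […], inoculum 5×10^5 CFU/mL, antibiotic tested over 64-0.06 μg/mL. MIC is taken as the lowest concentration that inhibits growth. Panel includes recent clinical isolates resistant to methicillin, penicillin and/or vancomycin.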

Staphylococcus sp. = test system: Staphylococcus sp.
In short: as §1

Streptococcus sp. = test system: Streptococcus sp.
In short: as §1

[1] = broth dilution, inoculum 5×10^5 CFU/mL

- MIC Enterococcus avium (GC 4558) (Enterococcus sp.; Enterococcus avium (GC 4558)): 16 µg/mL (≈ 11.2 µM)
- MIC Enterococcus faecalis (ATCC 29212) (Enterococcus sp.; Enterococcus faecalis (ATCC 29212)): 16 µg/mL (≈ 11.2 µM)
- MIC Enterococcus faecalis (GC 2242) (Enterococcus sp.; Enterococcus faecalis (GC 2242)): 16 µg/mL (≈ 11.2 µM)
- MIC Enterococcus faecalis (GC 2691) (Enterococcus sp.; Enterococcus faecalis (GC 2691)): 16 µg/mL (≈ 11.2 µM)
- MIC Enterococcus faecalis (GC 3059) (Enterococcus sp.; Enterococcus faecalis (GC 3059)): 32 µg/mL (≈ 22.3 µM)
- MIC Enterococcus faecalis (GC 4552) (Enterococcus sp.; Enterococcus faecalis (GC 4552)): 16 µg/mL (≈ 11.2 µM)
- MIC Enterococcus faecalis (GC 4553) (Enterococcus sp.; Enterococcus faecalis (GC 4553)): 16 µg/mL (≈ 11.2 µM)
- MIC Enterococcus faecalis (GC 4554) (Enterococcus sp.; Enterococcus faecalis (GC 4554)): 32 µg/mL (≈ 22.3 µM)
- MIC Enterococcus faecalis (GC 6189) (Enterococcus sp.; Enterococcus faecalis (GC 6189)): 16 µg/mL (≈ 11.2 µM)
- MIC Enterococcus faecium (GC 2243) (Enterococcus sp.; Enterococcus faecium (GC 2243)): 16 µg/mL (≈ 11.2 µM)
- MIC Enterococcus faecium (GC 4556) (Enterococcus sp.; Enterococcus faecium (GC 4556)): 16 µg/mL (≈ 11.2 µM)
- MIC Enterococcus faecium (GC 4557) (Enterococcus sp.; Enterococcus faecium (GC 4557)): 4 µg/mL (≈ 2.79 µM)
- MIC Enterococcus faecalis (GC 2242) (Enterococcus sp.; [1]): 16 µg/mL (≈ 11.2 µM)
- MIC Enterococcus faecalis (GC 2691) (Enterococcus sp.; [1]): 16 µg/mL (≈ 11.2 µM)
- MIC Enterococcus faecalis (GC 3059) (Enterococcus sp.; [1]): 32 µg/mL (≈ 22.3 µM)
- MIC Escherichia coli (ATCC 25922) (Escherichia coli; Escherichia coli (ATCC 25922)): 64 µg/mL (≈ 44.6 µM)
- MIC Escherichia coli (GC 4559) (Escherichia coli; Escherichia coli (GC 4559)): 64 µg/mL (≈ 44.6 µM)
- MIC Escherichia coli (GC 4560) (Escherichia coli; Escherichia coli (GC 4560)): 1 µg/mL (≈ 0.698 µM)
- MIC Coagulase Negative Staphylococcus (GC 4547) (Staphylococcus sp.; Coagulase Negative Staphylococcus (GC 4547)): 2 µg/mL (≈ 1.4 µM)
- MIC Coagulase Negative Staphylococcus (GC 4548) (Staphylococcus sp.; Coagulase Negative Staphylococcus (GC 4548)): 1 µg/mL (≈ 0.698 µM)
- MIC Coagulase Negative Staphylococcus (GC 4549) (Staphylococcus sp.; Coagulase Negative Staphylococcus (GC 4549)): 1 µg/mL (≈ 0.698 µM)
- MIC Coagulase Negative Staphylococcus (GC 4551) (Staphylococcus sp.; Coagulase Negative Staphylococcus (GC 4551)): 4 µg/mL (≈ 2.79 µM)
- MIC Coagulase Negative Staphylococcus (GC 6257) (Staphylococcus sp.; Coagulase Negative Staphylococcus (GC 6257)): 1 µg/mL (≈ 0.698 µM)
- MIC Staphylococcus aureus (ATCC 29213) (Staphylococcus sp.; Staphylococcus aureus (ATCC 29213)): 4 µg/mL (≈ 2.79 µM)
- MIC Staphylococcus aureus (GC 1131) (Staphylococcus sp.; Staphylococcus aureus (GC 1131)): 4 µg/mL (≈ 2.79 µM)
- MIC Staphylococcus aureus (GC 3051) (Staphylococcus sp.; Staphylococcus aureus (GC 3051)): 2 µg/mL (≈ 1.4 µM)
- MIC Staphylococcus aureus (GC 3053) (Staphylococcus sp.; Staphylococcus aureus (GC 3053)): 4 µg/mL (≈ 2.79 µM)
- MIC Staphylococcus aureus (GC 4541) (Staphylococcus sp.; Staphylococcus aureus (GC 4541)): 2 µg/mL (≈ 1.4 µM)
- MIC Staphylococcus aureus (GC 4542) (Staphylococcus sp.; Staphylococcus aureus (GC 4542)): 8 µg/mL (≈ 5.58 µM)
- MIC Staphylococcus aureus (GC 4544) (Staphylococcus sp.; Staphylococcus aureus (GC 4544)): 4 µg/mL (≈ 2.79 µM)
- MIC Staphylococcus aureus (GC 4545) (Staphylococcus sp.; Staphylococcus aureus (GC 4545)): 2 µg/mL (≈ 1.4 µM)
- MIC Staphylococcus aureus-SMITH (GC 4543) (Staphylococcus sp.; Staphylococcus aureus-SMITH (GC 4543)): 2 µg/mL (≈ 1.4 µM)
- MIC Streptococcus agalactiae (GC 4564) (Streptococcus sp.; Streptococcus agalactiae (GC 4564)): 2 µg/mL (≈ 1.4 µM)
- MIC Streptococcus pneumoniae (ATCC 6301) (Streptococcus sp.; Streptococcus pneumoniae (ATCC 6301)): 0.5 µg/mL (≈ 0.349 µM)
- MIC Streptococcus pneumoniae (GC 1894) (Streptococcus sp.; Streptococcus pneumoniae (GC 1894)): 0.25 µg/mL (≈ 0.174 µM)
- MIC Streptococcus pneumoniae (GC 4565) (Streptococcus sp.; Streptococcus pneumoniae (GC 4565)): 0.5 µg/mL (≈ 0.349 µM)
- MIC Streptococcus pyogenes (GC 4563) (Streptococcus sp.; Streptococcus pyogenes (GC 4563)): 1 µg/mL (≈ 0.698 µM)
- MIC Streptococcus agalactiae (GC 4564) (Streptococcus sp.; [1]): 2 µg/mL (≈ 1.4 µM)
- MIC Streptococcus pneumoniae (ATCC 6301) (Streptococcus sp.; [1]): 0.5 µg/mL (≈ 0.349 µM)
- MIC Streptococcus pneumoniae (GC 1894) (Streptococcus sp.; [1]): 0.25 µg/mL (≈ 0.174 µM)
- MIC Streptococcus pneumoniae (GC 4565) (Streptococcus sp.; [1]): 0.5 µg/mL (≈ 0.349 µM)
- MIC Streptococcus pyogenes (GC 4563) (Streptococcus sp.; [1]): 1 µg/mL (≈ 0.698 µM)
Structure (SMILES): COc1ccc(COCC2OC(OC3C(CO)OC(Oc4ccc(CC5NC(=O)C(C(C)c6ccccc6)NC(=O)CNC(=O)C(CO)NC(=O)C(C(O)C6CNC(=N)N6C6OC(CO)C(O)C(O)C6O)NC(=O)C(C(O)C6CNC(=N)N6)NC5=O)cc4)C(O)C3O)C(O)C(O)C2O)cc1F (stereo not shown) [Example 237]
- MIC Staphylococcus haemolyticus (GC 4546) (Staphylococcus sp.; Staphylococcus haemolyticus (GC 4546)): 1 µg/mL (≈ 0.698 µM)
